{"source": "patent US20140170236A1", "about": "“USE OF PHOSPHORIC ACID” (priority 2010, published 2014)", "key": {"[1]": {"settings": "Example 1 subject; 2.5 mL daily (183 mg phosphorus)"}, "calcified plaque": {"tested_on": "calcified plaque", "settings": "Example 1 subject; two years after angiogram that showed extensive calcified plaque", "method": "(§1) The cardiac interventionist prescribed the same kind of drug therapy as above. A stress test was conducted at this time to provide a baseline for comparing with possible future stress tests.\n(§2) The subject then took a 2.5 mL daily dose of a 23.8% (mg/L) solution of phosphoric acid composition comprising 183 mg of phosphorus for a period of twelve months. This represented 26% of the RDA of phosphorous (700 mg) for an adult."}, "coronary condition": {"tested_on": "coronary condition", "settings": "Example 1 subject; after twelve months of 2.5 mL daily (183 mg phosphorus); baseline stress test positive", "method": "as §1, §2"}, "[2]": {"method": "(§3) The risk assessment assumed that the calcified plaque would increase at the usual anticipated rate of approximately 15% to 30% a year. They took a daily dose of 2.5 ml of a 23.8% (mg/L) phosphoric acid in water, (183 mg of phosphorus) for a period of six months. […] A third CT calcium scan was performed approximately three months after increasing the dose. This was eight months and twenty days after the initial dosing with phosphoric acid."}, "[3]": {"tested_on": "soft plaque in the arteries", "settings": "Example 2 subject; at the time of the third CT calcium scan; no CTA scan before treatment", "source_text": "At the same time the most recent CT calcium scan was done, a Computed Tomography Angiography (CTA) scan was also done with contrast dye to determine the amount of soft plaque in the arteries."}, "[4]": {"tested_on": "calcified plaque in the coronary arteries", "source_text": "A coronary computed tomography (CT) calcium scan is a test to assess the build up of plaque (calcification) in the coronary arteries. Because calcium is a component of hard plaque and is a marker of coronary artery disease (CAD) such a scan can be used as a diagnostic tool for CAD. The amount of calcium detected on a CT scan, expressed as a calcium score, reflects the degree and extent of calcium deposits on the walls of coronary arteries. Once calcified plaque begins to accumulate on arterial walls the amount deposited increases logarithmically at a rate of 15% to 30% a year.\nThe calcium score is an indicator of potential heart risk. […] A higher score is indicative of an increased risk and cardiologists express concern of the possibility of a heart incident at various levels but especially at 400 or above. Some treatments such as the product Crestor®, claim to slow the rate of deposition of plaque.\nas §2, §3\nThe subject takes Famotadine for acid reflux and continues to smoke “one or two cigars a week.” The subject began taking a daily dose of 3.75 ml of a 23.8% (mg/L) phosphoric acid solution.\nThey currently take lipid lowering medication. They began taking 3.75 ml of a 23.8% (mg/L) phosphoric acid solution shortly after […] CT Calcium Scan.\nTheir medications includes: Benicar®, Crestor®, Niaspan®, and Lovaza®. Two and a half months after having the first Calcium Score assessment they began taking a daily dose of 3.75 ml of a 23.8% (mg/L) phosphoric acid solution. […] Note, cadaver studies consistently indicate that smokers are more prone to advanced artery disease."}}, "note": "Like-named read-outs stand apart in the source and are kept apart here."}
{"smiles": "O=P(O)(O)O", "note": "[phosphoric acid]", "values": [{"measurement": "bone density on bone scan", "setting": "[1]", "value": "normal bone density"}, {"measurement": "calcified plaque on CT Angiogram", "setting": "calcified plaque", "value": "no calcified plaque except in the area of the stent"}, {"measurement": "second stress echo test result", "setting": "coronary condition", "value": "negative"}, {"measurement": "side-effects related to the phosphoric acid composition", "setting": "[2]; Example 1 subject, 2.5 mL daily (183 mg phosphorus)", "value": "no side-effects"}, {"measurement": "side effects at the higher dose level", "setting": "[2]; Example 2 subject, daily dose 3.75 ml (274 mg phosphorus)", "value": "no side effects"}, {"measurement": "soft plaque score", "setting": "[3]", "value": 0}, {"measurement": "% Whose Ca Score Increased", "setting": "[4]; All, sample size 5", "value": 20, "unit": "%"}, {"measurement": "calcium score", "setting": "[4]; Example 1 subject (man, stent), 2.5 mL daily of 23.8% (mg/L) solution, 183 mg phosphorus, after one year, no base score", "value": 29}, {"measurement": "probability of a heart attack in the next 10 years", "setting": "[4]; Example 1 subject, after one year of 2.5 mL daily (183 mg phosphorus)", "value": 10, "unit": "%"}, {"measurement": "calcium score", "setting": "[4]; Example 2 subject, initial score 181, 2.5 ml daily (183 mg phosphorus), second CT scan at six months", "value": 181}, {"measurement": "calcium score", "setting": "[4]; Example 2 subject, initial score 181, third scan eight months and twenty days after initial dosing, about three months after increase to 3.75 ml (274 mg phosphorus)", "value": 179}, {"measurement": "calcium score", "setting": "[4]; Example 3 subject, initial score 193, 3.75 ml daily of 23.8% (mg/L) solution, approximately six months", "value": 122}, {"measurement": "reduction of calcium score", "setting": "[4]; Example 3 subject, 193 to 122, approximately six months of 3.75 ml daily", "value": 37, "unit": "%"}, {"measurement": "calcium score", "setting": "[4]; Example 4 subject, initial score 85, 3.75 ml of 23.8% (mg/L) solution, eight months", "value": 83}, {"measurement": "calcium score lower than the initial score", "setting": "[4]; Example 4 subject, 85 to 83, eight months", "value": 2, "unit": "points"}, {"measurement": "annual rate of increase of calcium score", "setting": "[4]; Example 5 subject", "value": 13.4, "unit": "%"}, {"measurement": "calcium score", "setting": "[4]; Example 5 subject (heavy smoker), initial score 117, 3.75 ml daily of 23.8% (mg/L) solution, eight months after start", "value": 130}, {"measurement": "increase of calcium score", "setting": "[4]; Example 5 subject, 117 to 130", "value": 11, "unit": "%"}, {"measurement": "% Whose Ca Score Increased", "setting": "[4]; Non-Smokers, sample size 4", "value": 0, "unit": "%"}, {"measurement": "% Whose Ca Score Increased", "setting": "[4]; Smokers, sample size 1", "value": 100, "unit": "%"}]}
